Assay results as given in PMC10065799, “High-throughput profiling of sequence recognition by tyrosine kinases and SH2 domains using bacterial peptide display” (eLife, 2023).

Assays:
Fes = assay: pTyr-Var library bacterial peptide display kinase screen (enrichment scores); assay type: biochemical
MERTK kinase domain = assay: as above; assay type: biochemical, human
c-Abl kinase domain = biological target: T1, c-Abl kinase domain (Mus musculus, UniProt P00520); assay: as above; assay type: biochemical;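 as to c-Abl hit?: Hit requires p below 0.05 and at least twofold variant vs reference change plus filters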;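 as to screen: log2 fold change in enrichment of variant over reference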
T1 sequence (P00520 242-493 limits assumed): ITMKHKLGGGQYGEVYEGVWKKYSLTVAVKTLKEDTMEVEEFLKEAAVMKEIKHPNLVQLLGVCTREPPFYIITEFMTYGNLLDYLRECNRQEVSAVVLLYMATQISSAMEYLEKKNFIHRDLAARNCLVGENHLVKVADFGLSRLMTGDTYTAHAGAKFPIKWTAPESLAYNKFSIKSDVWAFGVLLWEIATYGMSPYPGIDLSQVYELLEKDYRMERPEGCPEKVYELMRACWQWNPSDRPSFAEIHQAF

FGFR3 kinase domain = assay: as above; assay type: biochemical, human
Jak2 = assay: as above; assay type: biochemical, human
FGFR1 kinase domain = assay: as above; assay type: biochemical, human
Fyn kinase domain = assay: as above; assay type: biochemical, human;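 as to Fyn hit?: Hit requires p below 0.05 and at least twofold variant vs reference change plus filters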
Grb2 SH2 domain = assay: pTyr-Var library SH2 domain screen with SH2-dynabeads (enrichment scores)
Hck kinase domain = assay: pTyr-Var library bacterial peptide display kinase screen (enrichment scores); assay type: biochemical, human
c-Src SH2 domain = c-Src SH2 domain (Homo sapiens, UniProt P12931); assay: pTyr-Var library SH2 domain screen with SH2-dynabeads (enrichment scores); settings: sheet c-Src
[1] = system: 4G10 Platinum pan-phosphotyrosine antibody; assay: Phosphorylated pTyr-Var library selection with biotinylated pan-phosphotyrosine antibody; assay type: binding, mouse; settings: enrichment score, sheet SH2-vs-peptide
Description: After the desired time of library phosphorylation, kinase activity was quenched with 25 mM EDTA and the cells were washed with PBS containing 0.2% BSA. Kinase-treated cells were then labeled with a 1:1000 dilution of biotinylated 4G10 Platinum anti-phosphotyrosine antibody (Millipore) for an hour on ice and washed with PBS containing 0.1% BSA and 2 mM EDTA (isolation buffer). The cells were finally resuspended in PBS containing 0.1% BSA. The phosphorylated, antibody-labeled cells were then mixed with magnetic beads from Dynabeads FlowComp Flexi kit (Invitrogen), at a ratio of 37.5 μL of washed beads per 50 μL of cell suspension, diluted into 450 μL of isolation buffer. The suspension was rotated at 4 °C for 30 minutes, then 375 μL of isolation buffer was added and the beads were separated from the bulk solution on a magnetic rack. The beads were washed once with 1 mL of isolation buffer, and then the supertantant were removed by aspiration. […] The bead/lysate mixture was centrifuged to pellet the beads and the mixture was stored at -20 °C.

Fer kinase domain = assay: pTyr-Var library bacterial peptide display kinase screen (enrichment scores); assay type: biochemical, mouse;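 as to Fer hit?: Hit requires p below 0.05 and at least twofold variant vs reference change plus filters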;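 as to screen: log2 fold change in enrichment of variant over reference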
c-Src kinase domain = c-Src kinase domain (Homo sapiens, UniProt P12931); assay: as above; assay type: biochemical;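 as to c-Src hit?: Hit requires p below 0.05 and at least twofold variant vs reference change plus filters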
EPHB2 kinase domain = assay: as above; assay type: biochemical, human
SHP2 C-SH2 domain = assay: pTyr-Var library SH2 domain screen with SH2-dynabeads (enrichment scores)
AncSZ kinase domain = assay: pTyr-Var library bacterial peptide display kinase screen (enrichment scores); assay type: biochemical
EPHB1 kinase domain = assay: as above; assay type: biochemical, human;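 as to screen: log2 fold change in enrichment of variant over reference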
[2] = variant versus reference peptide
[3] = mean of log2(variant) minus mean of log2(reference)
[4] = mean of log2 enrichment of variant peptide, n = 4
[5] = pTyr-Var library, variant peptide enrichment, mean of n = 4
[6] = mean of log2 of enrichment over R1-R4
[7] = pTyr-Var library, enrichment score, replicate 1
[8] = pTyr-Var library, enrichment score, replicate 3
[9] = pTyr-Var library, enrichment score, replicate 4
[10] = variant versus reference peptide, significant hit TRUE/FALSE
[11] = mean of log2 enrichment of variant peptide, n = 5
[12] = pTyr-Var library, variant peptide enrichment, mean of n = 5

With LHVGFYESDVM [A2M_Y708_R704H] the “Fes mean of log2(enrichment)” value (Fes; mean of log2 of enrichment over R1-R6) was 0.6236, the “Fes difference (mean log2 variant - mean log2 reference)” value (Fes; [2]) was -0.8632 and the difference (MERTK kinase domain; [3]) was -1.201. The “mean of log2(variant)” value (MERTK kinase domain; [4]) was 0.1586, the var. mean (MERTK kinase domain; [5]) was 1.154 and the Screen (c-Abl kinase domain; fig5-data2, sheet "Abl", Screen for the variant/reference peptide pair, pTyr-Var library) was -1.318. For the same sequence, the “c-Abl mean of log2(enrichment)” value (c-Abl kinase domain; [6]) was -0.4279, the “c-Abl enrich. R1” value (c-Abl kinase domain; [7]) was 0.51 and the “c-Abl enrich. R3” value (c-Abl kinase domain; [8]) was 0.9195. The “c-Abl enrich. R4” value (c-Abl kinase domain; [9]) was 0.7727, the “c-Abl hit?” value (c-Abl kinase domain; [10]) was “FALSE” and the difference (FGFR3 kinase domain; [3]) was -1.255. For the same sequence, the “mean of log2(variant)” value (FGFR3 kinase domain; [11]) was 0.01497, the var. mean (FGFR3 kinase domain; [12]) was 1.21 and the “Jak2 mean of log2(enrichment)” value (Jak2; mean of log2 of enrichment over R1-R3) was 0.3892. For the same sequence, the “Jak2 enrich. R1” value (Jak2; [7]) was 1.336, the “Jak2 enrich. R3” value (Jak2; [8]) was 1.016 and the “Jak2 difference (mean log2 variant - mean log2 reference)” value (Jak2; [2]) was -0.5933. For the same sequence, the “Jak2 hit?” value (Jak2; [10]) was “FALSE”, the difference (FGFR1 kinase domain; [3]) was -0.559 and the “mean of log2(variant)” value (FGFR1 kinase domain; [11]) was -0.3446. For the same sequence, the var. mean (FGFR1 kinase domain; [12]) was 0.8886, the “Fyn mean of log2(enrichment)” value (Fyn kinase domain; [6]) was -0.6247 and the “Fyn enrich. R1” value (Fyn kinase domain; [7]) was 1.119. The “Fyn enrich. R3” value (Fyn kinase domain; [8]) was 0.683, the “Fyn enrich. R4” value (Fyn kinase domain; [9]) was 0.4956 and the “Fyn difference (mean log2 variant - mean log2 reference)” value (Fyn kinase domain; [2]) was -0.4761. For the same sequence, the “Fyn hit?” value (Fyn kinase domain; [10]) was “FALSE”, the difference (Grb2 SH2 domain; Grb2 SH2, mean of log2(variant) minus mean of log2(reference)) was 0.0213 and the “mean of log2(variant)” value (Grb2 SH2 domain; Grb2 SH2, mean of log2 enrichment of variant, R1-R3) was -0.08185. For the same sequence, the “hit?” value (Grb2 SH2 domain; Grb2 SH2, variant versus reference significant hit call) was “FALSE”, the var. mean (Grb2 SH2 domain; variant peptide enrichment score, Grb2 SH2, mean of R1-R3) was 0.9505 and the “Hck enrich. R1” value (Hck kinase domain; [7]) was 0.9181. The “Hck enrich. R3” value (Hck kinase domain; [8]) was 0.8034, the “Hck enrich. R4” value (Hck kinase domain; [9]) was 0.2649 and the “Hck hit?” value (Hck kinase domain; [10]) was “FALSE”. The difference (c-Src SH2 domain; [3]) was 0.05278, the “mean of log2(variant)” value (c-Src SH2 domain; mean of log2 enrichment of variant peptide, R1-R3) was 2.054 and the var. mean (c-Src SH2 domain; variant peptide, mean of R1-R3) was 4.231. The “4G10 (mean)” value [1] was 1.221, the “Fer mean of log2(enrichment)” value (Fer kinase domain; [6]) was 0.8907 and the “Fer enrich. R1” value (Fer kinase domain; [7]) was 2.223. The “Fer enrich. R3” value (Fer kinase domain; [8]) was 2.063, the “Fer enrich. R4” value (Fer kinase domain; [9]) was 1.22 and the Screen (Fer kinase domain; sheet "Fer", value of the variant peptide against its reference peptide in the pTyr-Var library screen with Fer) was 0.2498. The “Fer difference (mean log2 variant - mean log2 reference)” value (Fer kinase domain; [2]) was 0.2498, the “Fer hit?” value (Fer kinase domain; [10]) was “FALSE” and the “c-Src mean of log2(enrichment)” value (c-Src kinase domain; [6]) was -0.6428. The “c-Src enrich. R1” value (c-Src kinase domain; [7]) was 0.8102, the “c-Src enrich. R3” value (c-Src kinase domain; [8]) was 0.4328 and the “c-Src enrich. R4” value (c-Src kinase domain; [9]) was 0.9633. For the same sequence, the “c-Src difference (mean log2 variant - mean log2 reference)” value (c-Src kinase domain; [2]) was -1.034, the “c-Src hit?” value (c-Src kinase domain; [10]) was “FALSE” and the difference (EPHB2 kinase domain; [3]) was 0.5535. The “mean of log2(variant)” value (EPHB2 kinase domain; [4]) was 0.1669, the var. mean (EPHB2 kinase domain; [5]) was 1.142 and the difference (SHP2 C-SH2 domain; SHP2-C SH2, mean of log2(variant) minus mean of log2(reference)) was -0.5777. For the same sequence, the “mean of log2(variant)” value (SHP2 C-SH2 domain; SHP2-C SH2, mean of log2 enrichment of variant, R1-R3) was -0.5659, the “hit?” value (SHP2 C-SH2 domain; SHP2-C SH2, variant versus reference significant hit call) was “FALSE” and the var. mean (SHP2 C-SH2 domain; variant peptide enrichment score, SHP2-C SH2, mean of R1-R3) was 0.7213. For the same sequence, the “AncSZ mean of log2(enrichment)” value (AncSZ kinase domain; mean of log2 of enrichment over R1-R5) was 0.1983, the “AncSZ enrich. R1” value (AncSZ kinase domain; [7]) was 0.795 and the “AncSZ enrich. R3” value (AncSZ kinase domain; [8]) was 1.048. The “AncSZ enrich. R4” value (AncSZ kinase domain; [9]) was 1.095, the “AncSZ enrich. R5” value (AncSZ kinase domain; pTyr-Var library, enrichment score, replicate 5) was 1.306 and the “AncSZ difference (mean log2 variant - mean log2 reference)” value (AncSZ kinase domain; [2]) was -1.317. For the same sequence, the “AncSZ hit?” value (AncSZ kinase domain; [10]) was “FALSE”, the difference (EPHB1 kinase domain; [3]) was -0.4797 and the “mean of log2(variant)” value (EPHB1 kinase domain; [4]) was 0.4103. The var. mean (EPHB1 kinase domain; [5]) was 1.406 and the Screen (EPHB1 kinase domain; sheet EPHB1, effect of the variant peptide relative to its reference peptide in the pTyr-Var library screen (enrichment scores)) was -0.4797.
